According to PMC13598332, “Selective activation of tetrodotoxin-sensitive sodium channels by AaH-II drives arrhythmogenic late Na^+ current in the heart” (Europace, 2026):
Where two headings read alike, the source gives them in different places.

Legend:
[1] = target: T1, hNav1.5 (Homo sapiens, UniProt Q14524); assay type: cell-based; settings: for Na+ entry through hNav1.5 in action potential-mimicking protocol: 10 μM TTX-subtracted current
[2] = target: hNav1.1 (Homo sapiens, UniProt P35498); assay type: cell-based
[3] = target: hNav1.2 (Homo sapiens, UniProt Q99250); assay type: cell-based
[4] = target: hNav1.6 (Homo sapiens, UniProt Q9UQD0); assay type: cell-based
[5] = target: hNav1.7 (Homo sapiens, UniProt Q15858); assay type: cell-based
[6] = target: T1, hNav1.5; assay: Manual patch-clamp on HEK293-Nav1.5; assay type: cell-based; settings: 10 nM; HP −120 mV, 1000-ms step to −20 mV, RT
Protocol: Whole-cell Nav currents were recorded at RT from HEK293 stably expressing hNav1.5, using an Axopatch 200A amplifier (Axon Instruments, Molecular Devices). Voltage-clamp protocols were applied using the pClamp 10.4 software suite (Axon Instruments), interfaced with the electrophysiological setup through a Digidata 1440A digitizer (Axon Instruments). Patch-clamp pipettes were fabricated from borosilicate glass capillaries (outer diameter: 1.5 mm; inner diameter: 0.86 mm; Sutter Instrument) using a P-97 micropipette puller (Sutter Instrument), yielding a pipette resistance of 0.8–1.5 MΩ when filled with the internal solution. The internal solution contained (in mM) 10 CsCl, 110 CsF, 10 NaCl, 10 EGTA, and 10 HEPES (pH 7.2, osmolarity 280 mOsm). The external solution contained (in mM) 100 NaCl, 4 KCl, 40 NMDG, 2 CaCl2, 1 MgCl2, 5 glucose, and 10 HEPES (pH 7.4, osmolarity 298 mOsm). All chemicals were purchased from Sigma-Aldrich. After 80% series resistance compensation, 1000-ms depolarizing steps to −20 mV were applied from a HP of −120 mV to record sodium current under control conditions, following application of 10 nM AaH-II*. Sweeps were delivered every 5 s. Current signals were filtered at 10 kHz before digitization at 50 kHz and storage. […] Data were compiled and analysed using ClampFit 11.2 (Axon Instruments), Microsoft Excel, and GraphPad Software Prism.

[7] = test system: human iPS-derived ventricular cardiomyocytes; assay type: cell-based; settings: 0.1 nM; dynamic clamp, 1.43 Hz, 35–37°C; n = 10
[8] = test system: adult rat ventricular cardiomyocytes; assay: Calcium imaging (SCR events) in isolated rat cardiomyocytes; assay type: cell-based
Protocol: Eleven-week-old Wistar Han rats were euthanized by intraperitoneal (i.p.) injection of a lethal dose of pentobarbital (140 mg/kg, Euthasol®). Subsequently, the hearts were quickly excised and rinsed in cold calcium-free Tyrode solution with the following composition (in mM): 118 NaCl, 4.17 KCl, 1.2 MgSO4, 1.2 KH2PO4, 21 NaHCO3, 11 glucose, and 5 taurine, at pH 7.4. The aorta was promptly cannulated, and the hearts were perfused in a retrograde fashion with warm (37–38°C) Tyrode containing 1.25 mM CaCl2 to flush the coronary arteries of blood and then with a Tyrode solution supplemented with 1 mg/mL collagenase type 2 (Worthington Biochemical Corp, Lakewood, NJ) and 0.2 U.mL^−1 protease type XIV (Sigma, Poole, UK) during 15–20 min. Once enzymatic digestion is completed, ventricles were shredded into small pieces with surgical scissors in 0.5 mM Ca^2+ Tyrode solution, filtered through a 200-µm mesh, and then resuspended in 1 mM Ca^2+ Tyrode solution for 1 h at RT. Isolated cardiomyocytes were incubated in the dark with Fura-2-AM calcium probe (2 µM in 20% v/v DMSO; Life Technologies) for 15 min. Cardiomyocytes were then loaded onto the IonOptix system (IonOptix Corporation, U.S.A.) and perfused with warm (37°C) Tyrode solution. Cardiomyocytes were stimulated at 0.5 Hz using a MyoPacer field stimulator (20 V, 7 ms) to achieve steady state. Fura-2 fluorescence (F) at 510 nm was used to measure cytoplasmic Ca^2+ concentration variation by exciting with UV light at 340 and 380 nm. Cells were paced for 1 to 2 min, ensuring stabilization of the signals, and the effects of the peptides were measured at the end of a 5 min application time. 30-s-long periods were used as the unit duration (representing 15 Ca^2+ transients) during control and after the perfusion of the compound to count the number of arrhythmogenic transients.

[9] = test system: Wistar-Han rats; assay type: in vivo, rat; settings: for QTc / RR / P wave / PR / QRS / T wave area: mean ± SEM
[10] = in vivo; settings: Wistar-Han, rat, iv
[11] = representative traces, test 0 mV

Sequence of hNav1.2 (Q99250 whole entry): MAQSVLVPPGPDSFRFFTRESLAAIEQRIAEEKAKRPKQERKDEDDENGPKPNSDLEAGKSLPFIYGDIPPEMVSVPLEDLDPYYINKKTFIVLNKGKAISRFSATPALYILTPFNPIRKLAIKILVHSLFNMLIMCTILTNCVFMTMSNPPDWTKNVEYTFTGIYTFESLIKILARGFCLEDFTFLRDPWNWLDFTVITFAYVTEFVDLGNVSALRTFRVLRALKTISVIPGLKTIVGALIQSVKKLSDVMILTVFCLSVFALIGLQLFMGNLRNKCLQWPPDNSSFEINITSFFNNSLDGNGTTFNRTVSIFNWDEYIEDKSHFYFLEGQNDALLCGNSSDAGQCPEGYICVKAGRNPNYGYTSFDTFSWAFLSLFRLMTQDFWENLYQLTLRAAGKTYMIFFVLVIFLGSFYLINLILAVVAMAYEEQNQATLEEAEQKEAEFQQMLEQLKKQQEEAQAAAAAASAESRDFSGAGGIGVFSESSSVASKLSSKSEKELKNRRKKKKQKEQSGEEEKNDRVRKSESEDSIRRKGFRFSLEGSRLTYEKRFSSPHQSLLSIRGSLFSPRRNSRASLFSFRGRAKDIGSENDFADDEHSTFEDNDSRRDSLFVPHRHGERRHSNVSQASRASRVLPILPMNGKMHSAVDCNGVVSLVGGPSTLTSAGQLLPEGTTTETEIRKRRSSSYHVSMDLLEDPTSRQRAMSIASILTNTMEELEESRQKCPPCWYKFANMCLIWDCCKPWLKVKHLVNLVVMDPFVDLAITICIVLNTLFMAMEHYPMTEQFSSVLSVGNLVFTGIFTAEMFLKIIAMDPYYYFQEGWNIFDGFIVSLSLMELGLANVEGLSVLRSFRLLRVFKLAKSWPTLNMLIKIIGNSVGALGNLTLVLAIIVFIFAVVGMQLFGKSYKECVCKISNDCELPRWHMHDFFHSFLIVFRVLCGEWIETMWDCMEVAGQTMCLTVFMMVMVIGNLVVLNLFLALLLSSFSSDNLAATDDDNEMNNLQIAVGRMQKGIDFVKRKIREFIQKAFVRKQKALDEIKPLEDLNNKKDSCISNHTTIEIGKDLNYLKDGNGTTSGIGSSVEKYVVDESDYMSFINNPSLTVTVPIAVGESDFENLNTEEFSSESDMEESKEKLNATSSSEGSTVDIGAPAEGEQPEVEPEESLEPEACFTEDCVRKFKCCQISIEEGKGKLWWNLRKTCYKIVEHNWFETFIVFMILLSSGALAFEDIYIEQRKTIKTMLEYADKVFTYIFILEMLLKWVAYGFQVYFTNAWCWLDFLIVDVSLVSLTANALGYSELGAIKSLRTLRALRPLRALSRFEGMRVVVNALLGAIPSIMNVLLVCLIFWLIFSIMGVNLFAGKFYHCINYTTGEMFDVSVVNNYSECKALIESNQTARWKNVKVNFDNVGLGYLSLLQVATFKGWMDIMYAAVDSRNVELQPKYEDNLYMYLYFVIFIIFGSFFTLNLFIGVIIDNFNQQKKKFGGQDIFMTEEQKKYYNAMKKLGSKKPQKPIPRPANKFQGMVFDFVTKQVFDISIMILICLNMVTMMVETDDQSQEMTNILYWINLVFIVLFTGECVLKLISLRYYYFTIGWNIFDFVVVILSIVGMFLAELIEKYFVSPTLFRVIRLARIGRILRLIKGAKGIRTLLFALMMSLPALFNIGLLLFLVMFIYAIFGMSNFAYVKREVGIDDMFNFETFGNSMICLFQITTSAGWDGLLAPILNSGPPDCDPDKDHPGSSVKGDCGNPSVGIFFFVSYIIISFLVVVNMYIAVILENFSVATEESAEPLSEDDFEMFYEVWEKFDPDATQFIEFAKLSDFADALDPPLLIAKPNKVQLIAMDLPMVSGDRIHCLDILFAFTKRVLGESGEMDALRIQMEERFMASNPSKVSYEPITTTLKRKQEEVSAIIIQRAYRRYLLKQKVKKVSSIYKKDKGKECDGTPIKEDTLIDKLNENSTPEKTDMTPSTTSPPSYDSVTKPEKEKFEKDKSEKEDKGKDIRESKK
Sequence of hNav1.7 (Q15858 whole entry): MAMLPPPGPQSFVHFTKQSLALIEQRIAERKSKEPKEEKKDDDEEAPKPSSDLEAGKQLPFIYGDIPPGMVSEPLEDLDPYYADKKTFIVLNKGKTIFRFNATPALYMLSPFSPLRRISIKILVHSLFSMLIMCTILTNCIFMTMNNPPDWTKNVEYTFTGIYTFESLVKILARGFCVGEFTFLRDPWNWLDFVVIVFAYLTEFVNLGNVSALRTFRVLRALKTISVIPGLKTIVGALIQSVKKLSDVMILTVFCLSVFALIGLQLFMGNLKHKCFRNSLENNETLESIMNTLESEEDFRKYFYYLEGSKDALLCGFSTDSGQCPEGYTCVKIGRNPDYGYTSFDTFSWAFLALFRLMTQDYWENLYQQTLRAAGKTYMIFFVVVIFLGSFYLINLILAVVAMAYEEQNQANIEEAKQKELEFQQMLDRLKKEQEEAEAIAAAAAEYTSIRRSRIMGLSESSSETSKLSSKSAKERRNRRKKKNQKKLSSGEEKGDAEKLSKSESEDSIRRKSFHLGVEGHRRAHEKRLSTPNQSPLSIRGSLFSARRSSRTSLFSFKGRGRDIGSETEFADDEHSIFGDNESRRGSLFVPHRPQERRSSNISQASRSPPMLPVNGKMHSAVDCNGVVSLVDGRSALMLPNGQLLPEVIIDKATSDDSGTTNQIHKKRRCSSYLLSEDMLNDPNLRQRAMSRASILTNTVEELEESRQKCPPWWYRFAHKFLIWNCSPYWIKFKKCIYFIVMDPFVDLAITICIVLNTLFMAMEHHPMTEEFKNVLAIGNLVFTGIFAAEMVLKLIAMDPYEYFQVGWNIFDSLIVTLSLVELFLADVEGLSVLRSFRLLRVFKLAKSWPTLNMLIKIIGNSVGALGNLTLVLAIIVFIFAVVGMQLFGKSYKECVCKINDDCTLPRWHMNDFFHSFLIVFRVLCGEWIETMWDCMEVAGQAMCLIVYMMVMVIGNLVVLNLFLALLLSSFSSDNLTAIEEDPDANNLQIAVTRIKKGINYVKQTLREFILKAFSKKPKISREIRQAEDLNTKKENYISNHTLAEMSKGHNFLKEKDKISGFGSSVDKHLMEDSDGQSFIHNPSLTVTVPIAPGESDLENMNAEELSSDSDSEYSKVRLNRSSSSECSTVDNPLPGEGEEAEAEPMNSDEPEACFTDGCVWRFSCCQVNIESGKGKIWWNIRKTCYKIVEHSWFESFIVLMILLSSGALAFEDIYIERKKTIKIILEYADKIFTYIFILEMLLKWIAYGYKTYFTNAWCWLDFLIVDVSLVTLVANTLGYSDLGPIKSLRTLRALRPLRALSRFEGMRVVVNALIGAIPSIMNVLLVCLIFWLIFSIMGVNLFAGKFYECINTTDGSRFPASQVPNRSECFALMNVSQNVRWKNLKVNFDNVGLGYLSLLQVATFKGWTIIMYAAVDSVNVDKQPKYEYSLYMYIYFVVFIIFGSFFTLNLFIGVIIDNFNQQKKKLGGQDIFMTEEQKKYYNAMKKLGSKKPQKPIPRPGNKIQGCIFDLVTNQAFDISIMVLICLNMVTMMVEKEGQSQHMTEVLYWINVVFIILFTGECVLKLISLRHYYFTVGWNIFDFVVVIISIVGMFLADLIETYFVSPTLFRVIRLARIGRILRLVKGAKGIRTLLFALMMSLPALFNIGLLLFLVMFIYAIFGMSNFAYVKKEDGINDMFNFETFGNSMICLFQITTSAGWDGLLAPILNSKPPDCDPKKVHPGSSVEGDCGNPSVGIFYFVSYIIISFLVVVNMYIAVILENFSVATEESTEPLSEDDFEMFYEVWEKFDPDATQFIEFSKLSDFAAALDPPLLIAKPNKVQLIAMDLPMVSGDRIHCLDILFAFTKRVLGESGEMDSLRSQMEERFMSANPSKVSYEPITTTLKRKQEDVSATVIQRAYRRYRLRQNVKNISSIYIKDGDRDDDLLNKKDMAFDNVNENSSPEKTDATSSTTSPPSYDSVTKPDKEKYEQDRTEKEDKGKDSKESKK

CC[C@H](C)[C@H](NC(=O)[C@H](Cc1ccc(O)cc1)NC(=O)CNC(=O)[C@H](CC(=O)O)NC(=O)[C@H](CCCCN)NC(=O)[C@@H](N)C(C)C)C(=O)N[C@H](C(=O)N[C@@H](CC(=O)O)C(=O)N[C@@H](CC(=O)O)C(=O)N[C@H](C(=O)N[C@@H](CC(N)=O)C(=O)N[C@H]1CSSC[C@@H](C(=O)N[C@@H](Cc2c[nH]cn2)C(N)=O)NC(=O)[C@H](CCCCN)NC(=O)CNC(=O)[C@@H]2CCCN2C(=O)CNC(=O)[C@H](CCCCN)NC(=O)[C@H]([C@@H](C)O)NC(=O)[C@H](CCCNC(=N)N)NC(=O)[C@H](C(C)C)NC(=O)[C@H](Cc2c[nH]cn2)NC(=O)[C@H](CC(=O)O)NC(=O)[C@@H]2CCCN2C(=O)[C@H](CC(C)C)NC(=O)[C@H](CCCCN)NC(=O)[C@H](Cc2ccc(O)cc2)NC(=O)[C@@H]2CSSC[C@@H]3NC(=O)[C@H](CCC(=O)O)NC(=O)[C@H](CCC(=O)O)NC(=O)[C@H](CC(N)=O)NC(=O)[C@@H]4CSSC[C@H](NC(=O)[C@H](C)NC(=O)[C@H](CC(N)=O)NC(=O)CNC(=O)[C@H](Cc5ccc(O)cc5)NC(=O)[C@@H]5CCCN5C(=O)[C@H](CO)NC(=O)[C@H](C)NC(=O)[C@H](Cc5c[nH]c6ccccc56)NC(=O)[C@H](CCC(N)=O)NC(=O)[C@H](CSSC[C@H](NC(=O)[C@H](Cc5ccccc5)NC(=O)[C@H](Cc5ccc(O)cc5)NC(=O)[C@H]([C@@H](C)O)NC1=O)C(=O)NCC(=O)N[C@@H](CCCNC(=N)N)C(=O)N[C@@H](CC(N)=O)C(=O)N[C@@H](C)C(=O)N[C@@H](Cc1ccc(O)cc1)C(=O)N4)NC(=O)[C@H](Cc1ccc(O)cc1)NC(=O)CNC(=O)[C@H](CO)NC(=O)[C@H](CCC(=O)O)NC(=O)CNC(=O)[C@H](CCCCN)NC(=O)[C@H](CC(C)C)NC(=O)[C@H](CCCCN)NC(=O)[C@H]([C@@H](C)O)NC3=O)C(=O)N[C@@H](Cc1ccc(O)cc1)C(=O)N2)C(C)C)C(C)C [AaH-II*]
Na+ entry through hNav1.5 in action potential-mimicking protocol ([1]; 0.1 nM): indistinguishable from the control condition
Na+ entry through hNav1.5 in action potential-mimicking protocol ([1]; 10 nM): capable of generating a measurable Na^+ current
INaL after 1 s depolarization ([1]; hNav1.5, 10 nM): absence of AaH-II*-mediated INaL after 1 s depolarization
shift in voltage-dependence of activation ([1]; hNav1.5, 10 nM): lack of shift in the voltage-dependence of activation and inactivation
maximal INaL stimulation (maximal AUC) ([1]; hNav1.5, highest effective AaH-II* concentration): ~19 fold
concentration at which INaL is triggered / becomes noticeable ([1]; hNav1.5, representative traces, test 0 mV): 0.3 nM
INaL after 1 s depolarization ([2]; 10 nM): maintained INaL after 1 s pulse
shift in voltage-dependence of activation ([2]; 10 nM): large AaH-II*-triggered hyperpolarizing shift in voltage-dependence of activation
maximal INaL stimulation (maximal AUC) ([2]; highest effective AaH-II* concentration): ~19 fold
concentration at which INaL is triggered / becomes noticeable [2, 11]: 0.1 nM
hNav1.2 peak current inhibition ([3]; above 1 nM): not observed
INaL after 1 s depolarization ([3]; hNav1.2, 10 nM): significant INaL current at 1 s depolarization
shift in voltage-dependence of activation ([3]; hNav1.2, 10 nM): lacked a significant shift in voltage-dependence of activation
concentration at which INaL is triggered / becomes noticeable ([3]; hNav1.2, representative traces, test 0 mV): 0.1 nM
activation of hNav1.6 current incl. INaL after TTX block ([4]; 10 nM AaH-II* applied after 100 nM TTX): failed to activate any form of current
INaL after 1 s depolarization ([4]; hNav1.6, 10 nM): maintained INaL after 1 s pulse
shift in voltage-dependence of activation ([4]; hNav1.6, 10 nM): large AaH-II*-triggered hyperpolarizing shift in voltage-dependence of activation
concentration at which INaL is triggered / becomes noticeable ([4]; hNav1.6, representative traces, test 0 mV): 0.1 nM
INaL after 1 s depolarization ([5]; 10 nM): lacked sufficient INaL at 1 s depolarization
shift in voltage-dependence of activation ([5]; 10 nM): AaH-II*-mediated shift in voltage-dependence of activation
concentration at which INaL is triggered / becomes noticeable [5, 11]: 1 nM
effect on peak current amplitude or INaL measured at 1 sec depolarization [6]: absence of effect
AP duration APD20, APD50, APD90 [7]: increase the AP duration
maximal diastolic potential, AP amplitude, dV/dtmax [7]: not significantly affected
average frequency of SCR events ([8]; 0.1 nM AaH-II*): 14 SCR/min
cells presenting SCR events (SCR cells / cells) ([8]; 0.1 nM peptide, 0.5 Hz pacing, 37°C, 5 min application): 13 out of 23
calcium transient amplitude and time to peak ([8]; 1 or 3 nM AaH-II*): slightly reduce the amplitude of the calcium transients and slow the time to peak
arrhythmic rats (rats / all rats) ([9]; AaH-II* 3 μg/kg i.v.): none of the rats were arrhythmic
QTc ([9]; AaH-II* 3 µg/kg i.v., QTc = QT/(RR/100)^1/2, n = 5): 54.9 ± 5.2
RR ([9]; AaH-II* 3 µg/kg i.v., anaesthetized rats, lead I, n = 5): 153.7 ± 5.6 ms
P wave ([9]; AaH-II* 3 µg/kg i.v., n = 5): 17.5 ± 0.3 ms
PR ([9]; AaH-II* 3 µg/kg i.v., n = 5): 47.5 ± 1.4 ms
QRS ([9]; AaH-II* 3 µg/kg i.v., n = 5): 16.9 ± 1.0 ms
T wave area ([9]; AaH-II* 3 µg/kg i.v., n = 5): 1.8 ± 0.5 mV/ms
rats with A-V blocks/ PVCs (rats / all rats) ([9]; AaH-II* 15 μg/kg i.v.): in all rats
P wave ([9]; AaH-II* 15 µg/kg i.v., n = 6): 18.0 ± 0.8 ms
PR ([9]; AaH-II* 15 µg/kg i.v., n = 6): 53.2 ± 5.4 ms
QRS ([9]; AaH-II* 15 µg/kg i.v., n = 6): 18.0 ± 0.6 ms
RR ([9]; AaH-II* 15 µg/kg i.v., n = 6): 181.6 ± 2.7 ms
T wave area ([9]; AaH-II* 15 µg/kg i.v., n = 6): 3.2 ± 0.5 mV/ms
P wave ([9]; AaH-II* 30 µg/kg i.v., n = 6): 18.9 ± 0.8 ms
PR ([9]; AaH-II* 30 µg/kg i.v., n = 6): 53.8 ± 2.2 ms
QRS ([9]; AaH-II* 30 µg/kg i.v., n = 6): 17.8 ± 0.3 ms
QTc ([9]; AaH-II* 30 µg/kg i.v., n = 6): 69.5 ± 3.3
RR ([9]; AaH-II* 30 µg/kg i.v., n = 6): 176.8 ± 12.3 ms
T wave area ([9]; AaH-II* 30 µg/kg i.v., n = 6): 8.1 ± 1.9 mV/ms
level at time molar ([10]; 3 ug/kg): < 0.1 nM
level at time molar ([10]; 15 ug/kg): 2.4 ± 0.4 nM
level at time molar ([10]; 30 ug/kg): 4.3 ± 0.6 nM
